≈ marks a conversion by molar mass, not a printed value.
How the values were obtained:
[1] = Colour change of solutions from solubility estimates at room temperature; assay type: physicochemical; conditions: acetone, acetonitrile, DMA, DMF, p-dioxane, ethanol, IPOAc, MEK and methanol; after 1-3 days at room temperature
Method: Kinetic solubility estimates of cannabidiol were determined in various solvents to aid in designing screening experiments (Tables 1 and 2). Solubilities were estimated by adding measured aliquots of solvent to weighed amounts of cannabidiol at room temperature (RT). Samples were sonicated in between aliquot additions and dissolution was judged by visual inspection. Discoloration of the solutions produced from solubility estimates in acetone, acetonitrile, DMA, DMF, p-dioxane, ethanol, IPOAc, MEK and methanol were observed after 1-3 days at room temperature.

[2] = Approximate (kinetic) solubility estimate by aliquot addition with visual inspection; assay type: physicochemical; conditions: for solubility: thermodynamic from solid, ambient temperature
Method: Weighed samples were treated with aliquots of a solvent or solvent mixture at RT. The mixtures were sonicated between additions to facilitate dissolution. Complete dissolution of the test material was determined by visual inspection. Solubility was estimated based on the total solvent used to provide complete dissolution. The actual solubility may be greater than the value calculated because of the use of solvent aliquots that were too large or due to a slow rate of dissolution. […] If complete dissolution was achieved as a result of only one aliquot addition, the solubility is expressed as “greater than.”
Solubilities were estimated by adding measured aliquots of solvent to weighed amounts of cannabidiol at room temperature (RT). Samples were sonicated in between aliquot additions and dissolution was judged by visual inspection.

With `C=C(C)[C@@H]1CCC(C)=C[C@H]1c1c(O)cc(CCCCC)cc1O` [Cannabidiol] the “Discoloration of solutions from solubility estimates” value [1] was “Discoloration”, the solubility ([2]; organic solvent or mixture, Acetone) was 23 mg/mL (≈ 73.1 mM) and the solubility ([2]; organic solvent or mixture, Acetonitrile) was over 50 mg/mL. For the same compound, the solubility ([2]; organic solvent or mixture, Cyclohexane) was 15 mg/mL (≈ 47.7 mM), the solubility ([2]; organic solvent or mixture, DCM) was 19 mg/mL (≈ 60.4 mM) and the solubility ([2]; organic solvent or mixture, DMSO) was 21 mg/mL (≈ 66.8 mM). The solubility ([2]; organic solvent or mixture, Diethyl Ether) was over 57 mg/mL, the solubility ([2]; organic solvent or mixture, EtOAc) was over 46 mg/mL and the solubility ([2]; organic solvent or mixture, IPA) was 14 mg/mL (≈ 44.5 mM). The solubility ([2]; organic solvent or mixture, IPOAc) was over 68 mg/mL, the solubility ([2]; organic solvent or mixture, MEK) was over 55 mg/mL and the solubility ([2]; organic solvent or mixture, MIBK) was over 59 mg/mL. It also gave a solubility ([2]; organic solvent or mixture, MTBE) of 34 mg/mL (≈ 108 mM), a solubility ([2]; organic solvent or mixture, MeOH) of over 57 mg/mL and a solubility ([2]; organic solvent or mixture, NMP) of 29 mg/mL (≈ 92.2 mM). For the same compound, the solubility ([2]; organic solvent or mixture, Octanol) was 13 mg/mL (≈ 41.3 mM), the solubility ([2]; organic solvent or mixture, TFE) was under 1 mg/mL and the solubility ([2]; organic solvent or mixture, THF) was over 71 mg/mL. It also gave a solubility ([2]; organic solvent or mixture, p-dioxane) of over 48 mg/mL, a solubility ([2]; Water) of under 1 mg/mL and an Aqueous solubility estimate ([2]; water, aliquot addition method) of under 1 mg/mL.

From US12655083B2, “Solid forms of cannabidiol and uses thereof” (Artelo Biosciences, Inc., priority 2017, dated 2026)
